Values quoted from earlier work in patent US20140248600A1, “BLOOD TREATMENT APPARATUS ADAPTED TO PRESERVE PARTS THEREOF” (Gambro Lundia AB, priority 2011, published 2014).

Test system: C. albicans
Details: resulting pH: acetic acid 3.6; citric acid 2.4; succinic acid 2.8; tartaric acid 2.3; fumaric acid 2.6; maleic acid 2.0; control pH 5.5

| Structure (SMILES) | Growth of C. albicans with acid added to the medium |
| --- | --- |
| CC(=O)O [acetic acid] | grew as well as the control |
| O=C(O)CC(O)(CC(=O)O)C(=O)O [citric acid] | grew as well as the control |
| O=C(O)/C=C/C(=O)O [fumaric] | inhibition of growth |
| O=C(O)/C=C\C(=O)O [maleic acid] | inhibition of growth |
| O=C(O)CCC(=O)O [succinic acid] | grew as well as the control |
| O=C(O)C(O)C(O)C(=O)O (stereo not drawn) [tartaric acid] | grew as well as the control |
